Earlier results as cited in US20250127711A1, “COMPOSITION AND METHOD FOR TREATING FUNGAL SKIN CONDITIONS AND INFLAMMATION” (CMPD Licensing, LLC, priority 2016, published 2025).

How the values were obtained:
[1] = test system: mineralocorticoid activity

solubility in ethanol (ethanol)	solubility in water (water)	SMILES	mineralocorticoid activity [1]	glucocorticoid activity (glucocorticoid activity)
–	–	C[C@H]1C[C@H]2[C@@H]3CCC4=CC(=O)C=C[C@]4(C)[C@@]3(F)[C@@H](O)C[C@]2(C)[C@@]1(O)C(=O)CCl [Clobetasol]	slight degree	high degree
slightly soluble	practically insoluble	CC(=O)OCC(=O)[C@@]12OC(C)(C)O[C@@H]1C[C@H]1[C@@H]3C[C@H](F)C4=CC(=O)C=C[C@]4(C)[C@@]3(F)[C@@H](O)C[C@@]12C [Fluocinonide]	–	–
